# Assays:
# Test in all cases: relative viability (nuclei count vs DMSO), 5 days (fraction); higher = more cells survive
# NCI-H1975 = tested on: NCI-H1975
# Method in brief: (§1)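 Lung cancer cell lines in 1536-well plates got either a single drug or a fixed anchor-drug dose together with five library-drug doses (not always all listed) in √10 steps, by pin tool, on the day after seeding. Nuclei were counted after 5 days, and relative viability is the treated-to-vehicle ratio of nuclei counts. Values are medians of duplicate plates.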
# SK-LU-1 = tested on: SK-LU-1
# Method in brief: as §1
# EPLC-272H = tested on: EPLC-272H
# Method in brief: as §1
# EMC-BAC-2 = tested on: EMC-BAC-2
# Method in brief: as §1
# EKVX = tested on: EKVX
# Method in brief: as §1
# HCC-78 = tested on: HCC-78
# Method in brief: as §1
# NCI-H1666 = tested on: NCI-H1666
# Method in brief: as §1
# ChaGo-K-1 = tested on: ChaGo-K-1
# Method in brief: as §1
# NCI-H2405 = tested on: NCI-H2405
# Method in brief: as §1
# HCC-827 = tested on: HCC-827
# Method in brief: as §1
# LU99A = tested on: LU99A
# Method in brief: as §1
# NCI-H23 = tested on: NCI-H23
# Method in brief: as §1
# NCI-H2126 = tested on: NCI-H2126
# Method in brief: as §1
# LK-2 = tested on: LK-2
# Method in brief: as §1
# PC-14 = tested on: PC-14
# Method in brief: as §1
# NCI-H1563 = tested on: NCI-H1563
# Method in brief: as §1
# RERF-LC-KJ = tested on: RERF-LC-KJ
# Method in brief: as §1
# LCLC-103H = tested on: LCLC-103H
# Method in brief: as §1
# NCI-H322M = tested on: NCI-H322M
# Method in brief: as §1
# SW 1573 = tested on: SW 1573
# Method in brief: as §1
compound,measurement,setting,value
COc1cc2nccc(Oc3ccc(NC(=O)Nc4cc(C)on4)c(Cl)c3)c2cc1OC [Tivozanib] + C[C@@H](Oc1cc(-c2cnn(C3CCNCC3)c2)cnc1N)c1c(Cl)ccc(F)c1Cl [Crizotinib] (partner 1 µM),relative viability,NCI-H1975; first compound 0.005 µM,1.03
same,relative viability,NCI-H1975; first compound 0.01581 µM,0.856
same,relative viability,NCI-H1975; first compound 0.05 µM,0.944
same,relative viability,NCI-H1975; first compound 0.1581 µM,0.833
same,relative viability,NCI-H1975; first compound 0.5 µM,0.826
same,relative viability,SK-LU-1; first compound 0.005 µM,0.909
same,relative viability,SK-LU-1; first compound 0.01581 µM,0.864
same,relative viability,SK-LU-1; first compound 0.05 µM,0.932
same,relative viability,SK-LU-1; first compound 0.1581 µM,0.614
same,relative viability,SK-LU-1; first compound 0.5 µM,0.84
same,relative viability,EPLC-272H; first compound 0.005 µM,0.945
same,relative viability,EPLC-272H; first compound 0.01581 µM,0.829
same,relative viability,EPLC-272H; first compound 0.05 µM,0.937
same,relative viability,EPLC-272H; first compound 0.1581 µM,0.718
same,relative viability,EPLC-272H; first compound 0.5 µM,0.715
same,relative viability,EMC-BAC-2; first compound 0.005 µM,0.769
same,relative viability,EMC-BAC-2; first compound 0.01581 µM,0.807
same,relative viability,EMC-BAC-2; first compound 0.05 µM,0.74
same,relative viability,EMC-BAC-2; first compound 0.1581 µM,0.754
same,relative viability,EMC-BAC-2; first compound 0.5 µM,0.791
same,relative viability,EKVX; first compound 0.005 µM,0.995
same,relative viability,EKVX; first compound 0.01581 µM,1.02
same,relative viability,EKVX; first compound 0.05 µM,0.819
same,relative viability,EKVX; first compound 0.1581 µM,1.06
same,relative viability,EKVX; first compound 0.5 µM,1.22
same,relative viability,HCC-78; first compound 0.005 µM,0.352
same,relative viability,HCC-78; first compound 0.01581 µM,0.365
same,relative viability,HCC-78; first compound 0.05 µM,0.313
same,relative viability,HCC-78; first compound 0.1581 µM,0.364
same,relative viability,HCC-78; first compound 0.5 µM,0.351
same,relative viability,NCI-H1666; first compound 0.005 µM,0.963
same,relative viability,NCI-H1666; first compound 0.01581 µM,0.905
same,relative viability,NCI-H1666; first compound 0.05 µM,0.901
same,relative viability,NCI-H1666; first compound 0.1581 µM,1.21
same,relative viability,NCI-H1666; first compound 0.5 µM,0.853
same,relative viability,ChaGo-K-1; first compound 0.005 µM,1.05
same,relative viability,ChaGo-K-1; first compound 0.01581 µM,1.17
same,relative viability,ChaGo-K-1; first compound 0.05 µM,1.19
same,relative viability,ChaGo-K-1; first compound 0.1581 µM,1.17
same,relative viability,ChaGo-K-1; first compound 0.5 µM,0.849
same,relative viability,NCI-H2405; first compound 0.005 µM,0.859
same,relative viability,NCI-H2405; first compound 0.01581 µM,0.846
same,relative viability,NCI-H2405; first compound 0.05 µM,0.933
same,relative viability,NCI-H2405; first compound 0.1581 µM,0.903
same,relative viability,NCI-H2405; first compound 0.5 µM,0.803
same,relative viability,HCC-827; first compound 0.005 µM,0.956
same,relative viability,HCC-827; first compound 0.01581 µM,0.928
same,relative viability,HCC-827; first compound 0.05 µM,0.938
same,relative viability,HCC-827; first compound 0.1581 µM,0.988
same,relative viability,HCC-827; first compound 0.5 µM,0.866
same,relative viability,LU99A; first compound 0.005 µM,0.549
same,relative viability,LU99A; first compound 0.01581 µM,0.537
same,relative viability,LU99A; first compound 0.05 µM,0.555
same,relative viability,LU99A; first compound 0.5 µM,0.482
same,relative viability,NCI-H23; first compound 0.005 µM,0.544
same,relative viability,NCI-H23; first compound 0.01581 µM,0.541
same,relative viability,NCI-H23; first compound 0.05 µM,0.474
same,relative viability,NCI-H23; first compound 0.1581 µM,0.461
same,relative viability,NCI-H23; first compound 0.5 µM,0.459
same,relative viability,NCI-H2126; first compound 0.005 µM,0.965
same,relative viability,NCI-H2126; first compound 0.01581 µM,0.946
same,relative viability,NCI-H2126; first compound 0.05 µM,1.03
same,relative viability,NCI-H2126; first compound 0.1581 µM,0.912
same,relative viability,NCI-H2126; first compound 0.5 µM,1.03
same,relative viability,LK-2; first compound 0.005 µM,0.253
same,relative viability,LK-2; first compound 0.01581 µM,0.264
same,relative viability,LK-2; first compound 0.05 µM,0.221
same,relative viability,LK-2; first compound 0.1581 µM,0.198
same,relative viability,LK-2; first compound 0.5 µM,0.22
same,relative viability,PC-14; first compound 0.005 µM,0.796
same,relative viability,PC-14; first compound 0.01581 µM,0.879
same,relative viability,PC-14; first compound 0.05 µM,0.961
same,relative viability,PC-14; first compound 0.1581 µM,0.879
same,relative viability,PC-14; first compound 0.5 µM,0.885
same,relative viability,NCI-H1563; first compound 0.005 µM,0.811
same,relative viability,NCI-H1563; first compound 0.01581 µM,0.857
same,relative viability,NCI-H1563; first compound 0.05 µM,0.81
same,relative viability,NCI-H1563; first compound 0.1581 µM,0.858
same,relative viability,NCI-H1563; first compound 0.5 µM,0.919
same,relative viability,RERF-LC-KJ; first compound 0.005 µM,0.771
same,relative viability,RERF-LC-KJ; first compound 0.01581 µM,0.81
same,relative viability,RERF-LC-KJ; first compound 0.05 µM,0.863
same,relative viability,RERF-LC-KJ; first compound 0.1581 µM,0.85
same,relative viability,RERF-LC-KJ; first compound 0.5 µM,0.747
same,relative viability,LCLC-103H; first compound 0.005 µM,1.04
same,relative viability,LCLC-103H; first compound 0.01581 µM,0.952
same,relative viability,LCLC-103H; first compound 0.05 µM,1.04
same,relative viability,LCLC-103H; first compound 0.1581 µM,1.03
same,relative viability,LCLC-103H; first compound 0.5 µM,1.06
same,relative viability,NCI-H322M; first compound 0.005 µM,0.9
same,relative viability,NCI-H322M; first compound 0.01581 µM,0.907
same,relative viability,NCI-H322M; first compound 0.05 µM,1.03
same,relative viability,NCI-H322M; first compound 0.1581 µM,0.845
same,relative viability,NCI-H322M; first compound 0.5 µM,0.8
same,relative viability,SW 1573; first compound 0.005 µM,0.901
same,relative viability,SW 1573; first compound 0.01581 µM,0.765
same,relative viability,SW 1573; first compound 0.05 µM,0.78
same,relative viability,SW 1573; first compound 0.1581 µM,0.749
same,relative viability,SW 1573; first compound 0.5 µM,0.829

# Reference: the supplement of paper PMC10307832
